Experimental data as given in patent US20240190849A1, “AMINOPYRIMIDINE COMPOUNDS AND METHODS OF THEIR USE” (TYRA BIOSCIENCES, INC., priority 2021, published 2024).

Legend:
Details in all cases: FGFR binding data
[1] = biological target: T1, FGFR1 (Homo sapiens, UniProt P11362); assay: Kinase binding assay (kinase-tagged T7 phage, affinity beads, qPCR readout), FGFR1
T1 construct: made in house; host or cells: E. coli derived from BL21, infected with T7 phage
Experimental: (§1) Kinase-tagged T7 phage strains were prepared in an E. coli host derived from the BL21 strain. E. coli were grown to log-phase and infected with T7 phage and incubated with shaking at 32° C. until lysis. The lysates were centrifuged and filtered to remove cell debris. Streptavidin-coated magnetic beads were treated with biotinylated small molecule ligands for 30 minutes at room temperature to generate affinity resins for kinase assays. The liganded beads were blocked with excess biotin and washed with blocking buffer SeaBlock (Pierce), 1% BSA, 0.05% Tween 20, 1 mM DTT to remove unbound ligand and to reduce non-specific binding. Binding reactions were assembled by combining kinases, liganded affinity beads, and test compounds in 1× binding buffer (20% SeaBlock, 0.17×PBS, 0.05% Tween 20, 6 mM DTT).
(§2) Test compounds were prepared as 111× stocks in 100% DMSO. Kds were determined using an 11-point 3-fold compound dilution series with three DMSO control points. All compounds for Kd measurements are distributed by acoustic transfer (non-contact dispensing) in 100% DMSO. The compounds were then diluted directly into the assays such that the final concentration of DMSO was 0.9%. All reactions performed in polypropylene 384-well plate. Each was a final volume of 0.02 ml. The assay plates were incubated at room temperature with shaking for 1 hour and the affinity beads were washed with wash buffer (1×PBS, 0.05% Tween 20). The beads were then re-suspended in elution buffer (1×PBS, 0.05% Tween 20, 0.5 μM non-biotinylated affinity ligand) and incubated at room temperature with shaking for 30 minutes. The kinase concentration in the eluates was measured by qPCR.
(§3) Binding constants were calculated with a standard dose-response curve using the Hill equation: […]
(§4) The Hill Slope was set to −1. Curves were fitted using a non-linear least square fit with the Levenberg-Marquardt algorithm.

[2] = biological target: T2, FGFR3 (Homo sapiens, UniProt P22607); assay: Kinase binding assay (kinase-tagged T7 phage, affinity beads, qPCR readout), FGFR3
T2 construct: made in house; host or cells: E. coli derived from BL21, infected with T7 phage
T2 sequence (P22607 23-806): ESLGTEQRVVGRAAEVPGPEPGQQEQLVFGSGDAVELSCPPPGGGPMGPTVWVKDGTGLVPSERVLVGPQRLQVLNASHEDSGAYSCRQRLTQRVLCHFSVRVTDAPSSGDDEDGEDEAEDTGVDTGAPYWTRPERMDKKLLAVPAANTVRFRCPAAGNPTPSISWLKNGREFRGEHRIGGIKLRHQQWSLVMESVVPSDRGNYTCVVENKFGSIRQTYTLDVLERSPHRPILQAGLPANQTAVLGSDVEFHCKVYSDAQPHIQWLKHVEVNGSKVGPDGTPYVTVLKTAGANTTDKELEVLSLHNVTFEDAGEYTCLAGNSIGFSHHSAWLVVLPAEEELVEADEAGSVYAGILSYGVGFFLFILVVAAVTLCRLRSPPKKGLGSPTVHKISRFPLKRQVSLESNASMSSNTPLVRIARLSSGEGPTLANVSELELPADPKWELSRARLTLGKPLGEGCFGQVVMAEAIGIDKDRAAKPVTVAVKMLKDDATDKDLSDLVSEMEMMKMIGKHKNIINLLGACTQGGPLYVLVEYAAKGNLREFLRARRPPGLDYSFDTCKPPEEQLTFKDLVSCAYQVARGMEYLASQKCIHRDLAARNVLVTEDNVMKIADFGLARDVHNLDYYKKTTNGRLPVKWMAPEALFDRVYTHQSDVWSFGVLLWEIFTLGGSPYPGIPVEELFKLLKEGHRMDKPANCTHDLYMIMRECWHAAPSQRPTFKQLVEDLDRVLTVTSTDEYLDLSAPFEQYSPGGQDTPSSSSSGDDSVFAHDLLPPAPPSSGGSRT
Experimental: as §1, §2, §3, §4

[3] = biological target: T3, FGFR2 (Homo sapiens, UniProt P21802); assay: Kinase binding assay (kinase-tagged T7 phage, affinity beads, qPCR readout), FGFR2
T3 construct: made in house; host or cells: E. coli derived from BL21, infected with T7 phage
T3 sequence (P21802 22-821): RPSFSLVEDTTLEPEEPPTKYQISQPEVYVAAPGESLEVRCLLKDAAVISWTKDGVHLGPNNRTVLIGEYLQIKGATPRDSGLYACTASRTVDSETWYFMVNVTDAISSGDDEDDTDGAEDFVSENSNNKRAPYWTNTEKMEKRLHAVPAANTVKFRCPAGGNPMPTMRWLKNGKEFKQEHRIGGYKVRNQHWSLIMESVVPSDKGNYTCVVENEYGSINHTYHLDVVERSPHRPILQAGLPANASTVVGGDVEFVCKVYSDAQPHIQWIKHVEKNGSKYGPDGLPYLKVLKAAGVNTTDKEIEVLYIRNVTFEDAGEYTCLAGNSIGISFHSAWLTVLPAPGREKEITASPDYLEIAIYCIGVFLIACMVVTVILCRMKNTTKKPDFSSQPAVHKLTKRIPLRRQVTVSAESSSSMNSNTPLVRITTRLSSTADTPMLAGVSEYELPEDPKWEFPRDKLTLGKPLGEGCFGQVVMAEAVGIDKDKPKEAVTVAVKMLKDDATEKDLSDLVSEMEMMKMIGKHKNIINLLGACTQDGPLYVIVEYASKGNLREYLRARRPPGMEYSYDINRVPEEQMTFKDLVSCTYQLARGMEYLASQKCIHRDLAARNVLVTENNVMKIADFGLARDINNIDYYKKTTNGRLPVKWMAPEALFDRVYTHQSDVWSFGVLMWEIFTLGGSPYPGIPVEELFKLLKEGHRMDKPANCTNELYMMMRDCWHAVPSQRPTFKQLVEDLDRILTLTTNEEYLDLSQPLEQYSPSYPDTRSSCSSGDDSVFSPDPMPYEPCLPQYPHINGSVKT
Experimental: as §1, §2, §3, §4

[4] = biological target: T4, FGFR3 (V555M) (Homo sapiens, UniProt P22607, V555M); assay: Kinase binding assay (kinase-tagged T7 phage, affinity beads, qPCR readout), FGFR3 (V555M)
T4 construct: made in house; host or cells: E. coli derived from BL21, infected with T7 phage
T4 sequence (P22607 23-806 V555M): as the sequence (P22607 23-806) above, with V533M counted along it
Experimental: as §1, §2, §3, §4

T1 sequence (P11362 22-822): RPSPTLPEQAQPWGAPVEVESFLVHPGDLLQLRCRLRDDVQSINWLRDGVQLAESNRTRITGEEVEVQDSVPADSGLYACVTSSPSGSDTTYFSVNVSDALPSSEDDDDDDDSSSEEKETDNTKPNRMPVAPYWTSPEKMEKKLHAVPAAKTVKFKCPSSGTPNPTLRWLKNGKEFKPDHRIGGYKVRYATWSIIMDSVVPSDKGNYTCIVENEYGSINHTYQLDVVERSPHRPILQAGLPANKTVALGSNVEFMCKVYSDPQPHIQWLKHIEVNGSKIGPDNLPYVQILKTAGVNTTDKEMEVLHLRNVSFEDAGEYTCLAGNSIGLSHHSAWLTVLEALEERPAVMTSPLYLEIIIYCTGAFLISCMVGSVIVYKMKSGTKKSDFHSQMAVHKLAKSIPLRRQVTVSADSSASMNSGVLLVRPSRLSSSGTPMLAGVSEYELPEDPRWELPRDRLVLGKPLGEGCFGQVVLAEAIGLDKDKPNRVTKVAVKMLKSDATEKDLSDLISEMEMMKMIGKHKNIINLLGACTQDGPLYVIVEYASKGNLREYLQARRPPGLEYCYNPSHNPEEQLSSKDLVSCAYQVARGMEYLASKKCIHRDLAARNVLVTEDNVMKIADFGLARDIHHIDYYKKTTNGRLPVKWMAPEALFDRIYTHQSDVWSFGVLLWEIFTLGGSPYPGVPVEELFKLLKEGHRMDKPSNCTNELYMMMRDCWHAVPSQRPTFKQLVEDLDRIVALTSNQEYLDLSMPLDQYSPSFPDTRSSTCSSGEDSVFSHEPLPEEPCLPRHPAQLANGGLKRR

Row | SMILES | Kd [1] [nM] | Kd [2] [nM] | Kd [3] [nM] | Kd [4] [nM]
1 | C=CC(=O)Nc1ccc2c(c1)c(C)cn2-c1nc(Nc2ccc(N3CCOCC3)nc2)ncc1Cl [Example 91, N-[1-[5-chloro-2-[(6-morpholino-3-pyridyl)amino]pyrimidin-4-yl]-3-methyl-indol-5-yl]prop-2-enamide] | 0.1 to 100 | 0.1 to 100 | 0.1 to 100 | 0.1 to 100
2 | C=CC(=O)Nc1ccc2c(-c3ccnc(Nc4ccn(C)n4)n3)cn(C)c2c1 [Example 92, N-[1-methyl-3-[2-[(1-methylpyrazol-3-yl)amino]pyrimidin-4-yl]indol-6-yl]prop-2-enamide] | 100 to 250 | 0.1 to 100 | 100 to 250 | 100 to 250
3 | C=CC(=O)Nc1ccc2c(c1)c(C)cn2-c1nc(Nc2ccn(CC)n2)ncc1C [Example 93, N-[1-[2-[(1-ethylpyrazol-3-yl)amino]-5-methyl-pyrimidin-4-yl]-3-methylindol-5-yl]prop-2-enamide] | 0.1 to 100 | 0.1 to 100 | 0.1 to 100 | 0.1 to 100
4 | C=CC(=O)Nc1ccc2c(-c3ccnc(Nc4ccn(CC)n4)n3)cn(C)c2c1 [Example 94, N-[3-[2-[(1-ethylpyrazol-3-yl)amino]pyrimidin-4-yl]-1-methyl-indol-6-yl]prop-2-enamide] | 100 to 250 | 0.1 to 100 | 250 to 1000 | 100 to 250
5 | C=CC(=O)Nc1ccc2c(-c3ccnc(Nc4cnn(CC)c4)n3)cn(C)c2c1 [Example 95, N-[3-[2-[(1-ethylpyrazol-4-yl)amino]pyrimidin-4-yl]-1-methyl-indol-6-yl]prop-2-enamide] | 0.1 to 100 | 0.1 to 100 | 0.1 to 100 | 0.1 to 100
6 | C=CC(=O)Nc1ccc2c(-c3ccnc(Nc4cnn(C(C)C)c4)n3)cn(C)c2c1 [Example 96, N-[3-[2-[(1-isopropylpyrazol-4-yl)amino]pyrimidin-4-yl]-1-methyl-indol-6-yl]prop-2-enamide] | 0.1 to 100 | 0.1 to 100 | 0.1 to 100 | 0.1 to 100
7 | C=CC(=O)Nc1cnc2c(c1)c(C)cn2-c1ccnc(Nc2ccn(C)n2)n1 [Example 98, N-[3-methyl-1-[2-[(1-methylpyrazol-3-yl)amino]pyrimidin-4-yl]pyrrolo[2,3-b]pyridin-5-yl]prop-2-enamide] | 0.1 to 100 | 0.1 to 100 | 0.1 to 100 | 0.1 to 100
8 | C=CC(=O)Nc1ccc2c(c1)c(C)cn2-c1nc(Nc2ccn(C3CC3)n2)ncc1C [Example 99, N-[1-[2-[(1-cyclopropylpyrazol-3-yl)amino]-5-methyl-pyrimidin-4-yl]-3-methyl-indol-5-yl]prop-2-enamide] | 0.1 to 100 | 0.1 to 100 | 0.1 to 100 | 0.1 to 100
9 | C=CC(=O)Nc1ccc2c(-c3ccnc(Nc4ccn(CCO)n4)n3)cn(C)c2c1 [Example 101, N-[3-[2-[[1-(2-hydroxyethyl)pyrazol-3-yl]amino]pyrimidin-4-yl]-1-methyl-indol-6-yl]prop-2-enamide] | 100 to 250 | 0.1 to 100 | 250 to 1000 | 100 to 250
10 | C=C(C)C(=O)Nc1ccc2c(c1)c(C)cn2-c1nc(Nc2ccnn2C)ncc1C [Example 104, 2-methyl-N-[3-methyl-1-[5-methyl-2-[(2-methylpyrazol-3-yl)amino]pyrimidin-4-yl]indol-5-yl]prop-2-enamide] | > 1000 | > 1000 | > 1000 | > 1000
11 | C=CC(=O)Nc1ccc2c(-c3ccnc(Nc4cnn(CC5CC5)c4)n3)cn(C)c2c1 [Example 105, N-[3-[2-[[1-(cyclopropylmethyl)pyrazol-4-yl]amino]pyrimidin-4-yl]-1-methyl-indol-6-yl]prop-2-enamide] | 0.1 to 100 | 0.1 to 100 | 0.1 to 100 | 0.1 to 100
12 | C#CC(=O)Nc1ccc2c(c1)c(C)cn2-c1nc(Nc2ccnn2C)ncc1C [Example 108, N-[3-methyl-1-[5-methyl-2-[(2-methylpyrazol-3-yl)amino]pyrimidin-4-yl]indol-5-yl]prop-2-ynamide] | 0.1 to 100 | 0.1 to 100 | 0.1 to 100 | 0.1 to 100
